According to ChEMBL document CHEMBL6083206, “SLL-1A-16 suppresses proliferation and induces autophagy in non-small-cell lung cancer cells via the AKT/mTOR signaling pathway” (RSC Med Chem, 2024):
Activity calls are given as the source filed them. The calls are words filed in the database; no cut-off is given here.

Columns and labels:
[1] = test system: Gefitinib-resistant A549/G cell; assay: Inhibition of Akt/mTOR signaling pathway in human Gefitinib-resistant A549/G cell assessed as decrease in phosphorylated 4EBP1 expression in presence of gefitinib by Western blot analysis; assay type: cell-based
NCI-H460 [2] = assay: Inhibition of Akt/mTOR signalling pathway in human NCI-H460 cells assessed as decrease in phosphorylated 4EBP1 expression by Western blot analysis; assay type: cell-based; conditions: dose 10-30 µM
A549 [3] = assay: Induction of autophagy in human A549 cells assessed as increase in Atg5 expression at 10 to 30 uM incubated for 24 hrs by Western blot analysis; assay type: functional, cell-based; conditions: dose 10-30 µM
NCI-H460 [4] = assay: Inhibition of Akt/mTOR signalling pathway in human NCI-H460 cells assessed as decrease in mTOR expression by Western blot analysis; assay type: cell-based; conditions: dose 10-30 µM
NCI-H460 [5] = assay: Antiproliferative activity against human NCI-H460 cells assessed as reduction in cell viability incubated for 48 hrs by CCK8 assay; assay type: functional, cell-based; conditions: NCI-H460, 48 h
A549 [6] = assay: Inhibition of Akt/mTOR signalling pathway in human A549 cells assessed as decrease in phosphorylated P70 S6K expression by Western blot analysis; assay type: cell-based; conditions: dose 10-30 µM
A549 [7] = assay: Antiproliferative activity against human A549 cells assessed as inhibition of cell proliferation in presence of temsirolimus by CCK8 assay; assay type: functional, cell-based
NCI-H460 [8] = assay: Inhibition of Akt/mTOR signaling pathway in human NCI-H460 cells assessed as decrease in mTOR expression in presence of temsirolimus by Western blot analysis; assay type: cell-based
NCI-H460 [9] = assay: Antiproliferative activity against human NCI-H460 cells assessed as inhibition of cell proliferation in presence of temsirolimus by CCK8 assay; assay type: functional, cell-based
A549 [10] = assay: Induction of apoptosis in human A549 cells assessed as early apoptotic cells at 10 uM incubated for 24 hrs by Annexin V-FITC/PI staining based flow cytometric analysis (reference value: 0.44 %); assay type: functional
NCI-H460 [11] = assay: Inhibition of Akt/mTOR signaling pathway in human NCI-H460 cells assessed as decrease in phosphorylated PRAS40 expression in presence of temsirolimus by Western blot analysis; assay type: cell-based
A549 [12] = assay: Induction of apoptosis in human A549 cells assessed as decrease in Bcl2 expression at 10 to 30 uM by Western blot analysis; assay type: functional, cell-based; conditions: dose 10-30 µM
BEAS-2B = assay: Cytotoxicity against human BEAS-2B cells assessed as inhibition of cell viability at 3 to 300 uM incubated for 48 hrs by CCK8 assay; assay type: toxicity, cell-based; conditions: dose 3-300 µM
A549 [13] = assay: Inhibition of Akt/mTOR signalling pathway in human A549 cells assessed as decrease in mTOR expression by Western blot analysis; assay type: cell-based; conditions: dose 10-30 µM
NCI-H460 [14] = assay: Induction of apoptosis in human NCI-H460 cells assessed as early apoptotic cells at 10 uM incubated for 24 hrs by Annexin V-FITC/PI staining based flow cytometric analysis (reference value: 3.22 %); assay type: functional
BGC-823 = assay: Antiproliferative activity against human BGC-823 cells assessed as inhibition of cell proliferation at 3 to 300 uM incubated for 48 hrs by CCK8 assay; assay type: functional, cell-based; conditions: dose 3-300 µM
[15] = test system: Gefitinib-resistant A549/G cell; assay: Antiproliferative activity against human Gefitinib-resistant A549/G cell assessed as inhibition of cell proliferation in presence of gefitinib; assay type: functional, cell-based
[16] = Toxicity in Balb/c nude mouse xenografted with human A549 cells assessed as reduction in body weight at 7.5 to 15 mg/kg, ip administered for 14 days; assay type: organism-based; conditions: in vivo, 336 h, dose 7.5-15 mg/kg, time 14 day
A549 [17] = assay: Inhibition of Akt/mTOR signalling pathway in human A549 cells assessed as decrease in c-myc expression by Western blot analysis; assay type: cell-based; conditions: dose 10-30 µM
NCI-H460 [18] = assay: Induction of apoptosis in human NCI-H460 cells assessed as necrotic cells at 10 uM incubated for 24 hrs by Annexin V-FITC/PI staining based flow cytometric analysis (reference value: 0.68 %); assay type: functional
NCI-H460 [19] = assay: Induction of apoptosis in human NCI-H460 cells assessed as viable cells at 30 uM incubated for 24 hrs by Annexin V-FITC/PI staining based flow cytometric analysis (reference value: 91.95 %); assay type: functional; conditions: read-out: Activity
[20] = test system: Gefitinib-resistant A549/G cell; assay: Inhibition of Akt/mTOR signaling pathway in human Gefitinib-resistant A549/G cell assessed as decrease in mTOR expression in presence of gefitinib by Western blot analysis; assay type: cell-based
A549 [21] = assay: Induction of apoptosis in human A549 cells assessed as viable cells at 30 uM incubated for 24 hrs by Annexin V-FITC/PI staining based flow cytometric analysis (reference value: 96.29 %); assay type: functional; conditions: read-out: Activity
NCI-H460 [22] = assay: Inhibition of Akt/mTOR signalling pathway in human NCI-H460 cells assessed as decrease in phosphorylated PRAS40 expression by Western blot analysis; assay type: cell-based; conditions: dose 10-30 µM
A549 [23] = assay: Cell cycle arrest in human A549 cells assessed as downregulation of cyclin D1 expression at 10 to 30 uM by Western blot analysis; assay type: functional, cell-based; conditions: dose 10-30 µM
NCI-H460 [24] = assay: Induction of apoptosis in human NCI-H460 cells assessed as early apoptotic cells at 30 uM incubated for 24 hrs by Annexin V-FITC/PI staining based flow cytometric analysis (reference value: 3.22 %); assay type: functional
A549 [25] = assay: Inhibition of colony formation in human A549 cells at 10 to 30 uM incubated for 24 hrs by giemsa staining based analysis; assay type: functional, cell-based; conditions: dose 10-30 µM
NCI-H460 [26] = assay: Cell cycle arrest in human NCI-H460 cells assessed as accumulation of cells at G1-S phase at 10 to 30 uM incubated for 24 hrs by PI staining based flow cytometric analysis; assay type: functional; conditions: dose 10-30 µM
A549 [27] = assay: Induction of apoptosis in human A549 cells assessed as late apoptotic cells at 30 uM incubated for 24 hrs by Annexin V-FITC/PI staining based flow cytometric analysis (reference value: 2.29 %); assay type: functional
NCI-H460 [28] = assay: Induction of apoptosis in human NCI-H460 cells assessed as viable cells at 10 uM incubated for 24 hrs by Annexin V-FITC/PI staining based flow cytometric analysis (reference value: 91.95 %); assay type: functional; conditions: read-out: Activity
A549 [29] = assay: Induction of autophagy in human A549 cells assessed as increase in fluorescence intensity of anti-LC3 incubated for 48 hrs by immunofluorescence staining based analysis; assay type: functional, cell-based; conditions: dose 10-30 µM

With `N#C[Se]CCCNC(=O)c1cccnc1` the inhibition [1] was “Active”, the inhibition (NCI-H460 [2]) was “Dose-dependent-effect; Inhibitory Ability Of Compound Is Comparable To Temsirolimus” and the Activity (A549 [3]) was “Active”. For the same compound, the inhibition (NCI-H460 [4]) was “Dose-dependent-effect; Inhibitory Ability Of Compound Is Comparable To Temsirolimus”, the IC50 (NCI-H460 [5]) was 17.4 µM and the inhibition (A549 [6]) was “Dose-dependent-effect; Inhibitory Ability Of Compound Is Comparable To Temsirolimus”. The Activity (A549 [7]) was “Active”, the inhibition (NCI-H460 [8]) was “Active” and the Activity (NCI-H460 [9]) was “Active”. The Activity (A549 [10]) was 3.66%, the inhibition (NCI-H460 [11]) was “Active” and the Activity (A549 [12]) was “Active”. For the same compound, the Activity (BEAS-2B) was “Toxic”, the inhibition (A549 [13]) was “Dose-dependent-effect; Inhibitory Ability Of Compound Is Comparable To Temsirolimus” and the Activity (NCI-H460 [14]) was 5.81%. For the same compound, the Activity (BGC-823) was “inactive”, the Activity [15] was “Active” and the Activity [16] was “Non-toxic”. For the same compound, the inhibition (A549 [17]) was “Dose-dependent-effect; Inhibitory Ability Of Compound Is Comparable To Temsirolimus”, the Activity (NCI-H460 [18]) was 3.73% and the viability at 30 µM (NCI-H460 [19]) was 74.7%. The inhibition [20] was “Active”, the viability at 30 µM (A549 [21]) was 75.9% and the inhibition (NCI-H460 [22]) was “Dose-dependent-effect; Inhibitory Ability Of Compound Is Comparable To Temsirolimus”. For the same compound, the Activity (A549 [23]) was “Active; G1 Phase Cell Cycle Arrest Observed”, the Activity (NCI-H460 [24]) was 6.3% and the inhibition (A549 [25]) was “Active”. The Activity (NCI-H460 [26]) was “Active”, the Activity (A549 [27]) was 14.41% and the viability at 10 µM (NCI-H460 [28]) was 81.5%. The Activity (A549 [29]) was “Dose-dependent-effect”.
